Assay results published in paper PMC9318203, “Squaramide-Tethered Sulfonamides and Coumarins: Synthesis, Inhibition of Tumor-Associated CAs IX and XII and Docking Simulations” (International Journal of Molecular Sciences, 2022).
Where “and” joins values, the source holds several entries; their conditions need not be identical. Equal entries are not always repeated.

Experiments:
[1] = molecular target: T1, hCA II (Homo sapiens, UniProt P00918); assay: stopped-flow CO2 hydrase assay, hCA II; format: biochemical
T1 construct: made in house
Procedure: (§1) For that purpose, the stopped-flow CO2 hydration assay was used (Table 1).
(§2) The inhibitory properties of title compounds against CAs were determined using the stopped-flow CO2 hydrase assay, as previously reported.

[2] = molecular target: T2, hCA XII (Homo sapiens, UniProt O43570); assay: stopped-flow CO2 hydrase assay, hCA XII; format: biochemical; conditions: for S.I. I/XII: Ki (CA I)/Ki (CA XII); for S.I. II/XII: Ki (CA II)/Ki (CA XII)
T2 construct: made in house
Procedure: as §1, §2

[3] = molecular target: T3, hCA IX (Homo sapiens, UniProt Q16790); assay: stopped-flow CO2 hydrase assay, hCA IX; format: biochemical; conditions: for S.I. I/IX: Ki (CA I)/Ki (CA IX); for S.I. II/IX: Ki (CA II)/Ki (CA IX)
T3 construct: made in house
Procedure: as §1, §2

[4] = molecular target: T4, hCA I (Homo sapiens, UniProt P00915); assay: stopped-flow CO2 hydrase assay, hCA I; format: biochemical
T4 construct: made in house
Procedure: as §1, §2

[5] = sulfonamido-containing squaramides, mean from 3 assays, stopped flow
[6] = coumarin-containing squaramides, incubation time 6 h, mean from three assays

T4 sequence (P00915 whole entry): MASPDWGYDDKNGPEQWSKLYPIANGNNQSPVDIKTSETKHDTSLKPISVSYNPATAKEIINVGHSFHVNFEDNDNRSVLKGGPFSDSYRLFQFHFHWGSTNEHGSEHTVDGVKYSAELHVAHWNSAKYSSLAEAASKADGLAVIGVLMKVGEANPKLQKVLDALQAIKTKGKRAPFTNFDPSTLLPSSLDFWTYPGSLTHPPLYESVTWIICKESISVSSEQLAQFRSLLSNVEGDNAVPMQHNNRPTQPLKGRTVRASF
T2 sequence (O43570 25-354): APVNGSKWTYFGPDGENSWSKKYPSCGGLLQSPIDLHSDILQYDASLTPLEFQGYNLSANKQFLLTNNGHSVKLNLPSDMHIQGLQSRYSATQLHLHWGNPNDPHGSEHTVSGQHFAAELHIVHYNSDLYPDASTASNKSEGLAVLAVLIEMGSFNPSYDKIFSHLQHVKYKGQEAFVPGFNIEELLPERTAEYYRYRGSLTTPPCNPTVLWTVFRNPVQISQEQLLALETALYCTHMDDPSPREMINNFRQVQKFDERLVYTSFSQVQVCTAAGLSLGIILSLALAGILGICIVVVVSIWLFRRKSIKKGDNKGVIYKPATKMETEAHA

Ki [1, 5] | S.I. I/XII [2] | S.I. II/XII [2] | Ki [2, 5] | S.I. I/IX [3] | S.I. II/IX [3] | Ki [3, 5] | Ki [4, 5] | melting point | S.I. (range of the selectivity indexes) ([3]; range over I/IX, I/XII, II/IX, II/XII) | Ki [1, 6] | Ki [2, 6] | Ki [3, 6] | Ki [4, 6] | Structure (SMILES)
0.72 µM | 2.2 | 7.4 | 0.0968 µM | 2.8 | 9.6 | 0.0753 µM | 0.211 µM | > 250 °C | – | – | – | – | – | NS(=O)(=O)c1ccc(CCNc2c(Nc3ccccc3)c(=O)c2=O)cc1 [Compound 5a, 3-Phenylamino-4-[2′-(4″-sulfonamidophenyl)ethylamino]cyclobut-3-ene-1,2-dione]
0.724 µM | 2.4 | 4.6 | 0.158 µM | 4.0 | 7.8 | 0.0925 µM | 0.373 µM | > 250 °C | – | – | – | – | – | COc1ccc(Nc2c(NCCc3ccc(S(N)(=O)=O)cc3)c(=O)c2=O)cc1 [Compound 5b, 3-(p-Methoxyphenyl)amino-4-[2′-(4″-sulfonamidophenyl)ethylamino]cyclobut-3-ene-1,2-dione]
0.819 µM | 9.8 | 9.1 | 0.0902 µM | 1.8 | 1.7 | 0.49 µM | 0.881 µM | > 250 °C | – | – | – | – | – | NS(=O)(=O)c1ccc(CCNc2c(Nc3ccc(Cl)cc3)c(=O)c2=O)cc1 [Compound 5c, 3-(p-Chlorophenyl)amino-4-[2′-(4″-sulfonamidophenyl)ethylamino]cyclobut-3-ene-1,2-dione]
0.91 µM | 5.3 | 11 | 0.0855 µM | 6.8 | 14 | 0.0676 µM | 0.457 µM | > 250 °C | 6.8–14 | – | – | – | – | NS(=O)(=O)c1ccc(CCNc2c(Nc3ccc(Br)cc3)c(=O)c2=O)cc1 [Compound 5d, 3-(p-Bromophenyl)amino-4-[2′-(4″-sulfonamidophenyl)ethylamino]cyclobut-3-ene-1,2-dione]
0.856 µM | 5.2 | 9.5 | 0.0903 µM | 5.1 | 9.2 | 0.0927 µM | 0.471 µM | > 250 °C | – | – | – | – | – | NS(=O)(=O)c1ccc(CCNc2c(Nc3ccc(I)cc3)c(=O)c2=O)cc1 [Compound 5e, 3-(p-Iodophenyl)amino-4-[2′-(4″-sulfonamidophenyl)ethylamino]cyclobut-3-ene-1,2-dione]
0.0659 µM | 15 | 10 | 0.00657 µM | 5.0 | 3.4 | 0.0195 µM | 0.098 µM | > 250 °C | – | – | – | – | – | NS(=O)(=O)c1ccc(Nc2c(Nc3ccccc3)c(=O)c2=O)cc1 [Compound 8, 3-Phenylamino-4-[4′-(sulfonamidophenyl)]aminocyclobut-3-ene-1,2-dione]
0.0409 µM | 14 | 7.1 | 0.00578 µM | 3.0 | 1.6 | 0.0262 µM | 0.0799 µM | – | – | – | – | – | – | COc1c(Nc2cccc(S(N)(=O)=O)c2)c(=O)c1=O [Compound 10, 3-Methoxy-4-[3′-(sulfonamidophenyl)]aminocyclobut-3-ene-1,2-dione]
0.0955 µM | 63 | 10 | 0.0095 µM and 0.00915 µM | 20 | 3.2 | 0.0294 µM | 0.58 µM | – | – | – | – | – | – | NS(=O)(=O)c1cccc(Nc2c(Nc3ccccc3)c(=O)c2=O)c1 [Compound 11]
– | – | – | – | – | – | – | – | > 250 °C | – | > 10 µM | 0.0421 µM | 0.0793 µM | > 10 µM | Cc1cc(=O)oc2cc(OCCCNc3c(Nc4ccccc4)c(=O)c3=O)ccc12 [Compound 16a, 3-{[3′-((4″-Methyl-2″-oxo-2″H-chromen-7″-yl)oxy)propyl]amino}-4-phenylaminocyclobut-3-ene-1,2-dione]
– | – | – | – | – | – | – | – | 200 to 201 °C | – | > 10 µM | 0.00723 µM | 0.0192 µM | > 10 µM | Cc1cc(=O)oc2cc(OCCCCCCCCCNc3c(Nc4ccccc4)c(=O)c3=O)ccc12 [Compound 16c, 3-{[9′-((4″-Methyl-2″-oxo-2″H-chromen-7″-yl)oxy)nonyl]amino}-4-phenylaminocyclobut-3-ene-1,2-dione]
– | – | – | – | – | – | – | – | 178 to 179 °C | – | > 10 µM | 0.00791 µM | 0.0181 µM | > 10 µM | Cc1cc(=O)oc2cc(OCCCCCCCCCCCCNc3c(Nc4ccccc4)c(=O)c3=O)ccc12 [Compound 16d, 3-{[12′-((4″-Methyl-2″-oxo-2″H-chromen-7″-yl)oxy)dodecyl]amino}-4-phenylaminocyclobut-3-ene-1,2-dione]
– | – | – | – | – | – | – | – | 225 to 227 °C | – | > 10 µM | 0.0244 µM | 0.0653 µM | > 10 µM | Cc1cc(=O)oc2cc(OCCCCCNc3c(Nc4ccc(Cl)cc4)c(=O)c3=O)ccc12 [Compound 16g, 3-[(4′-Chlorophenyl)amino]-4-{[5″-(4‴-methyl-2‴-oxo-2‴H-chromen-7‴-yl)oxypentyl]amino}cyclobut-3-ene-1,2-dione]
– | – | – | – | – | – | – | – | 248 to 249 °C | – | > 10 µM | 0.0139 µM | 0.0462 µM | > 10 µM | Cc1cc(=O)oc2cc(OCCCCCNc3c(Nc4ccc(Br)cc4)c(=O)c3=O)ccc12 [Compound 16h, 3-[(4′-Bromophenyl)amino]-4-{[5″-(4‴-methyl-2‴-oxo-2‴H-chromen-7‴-yl)oxypentyl]amino}cyclobut-3-ene-1,2-dione]
– | – | – | – | – | – | – | – | > 250 °C | – | > 10 µM | 0.0215 µM | 0.057 µM | > 10 µM | Cc1cc(=O)oc2cc(OCCCCCNc3c(Nc4ccc(I)cc4)c(=O)c3=O)ccc12 [Compound 16i, 3-[(4′-Iodophenyl)amino]-4-{[5″-(4‴-methyl-2‴-oxo-2‴H-chromen-7‴-yl)oxypentyl]amino}cyclobut-3-ene-1,2-dione]
– | – | – | – | – | – | – | – | > 250 °C | – | > 10 µM | 0.0583 µM | 0.107 µM | > 10 µM | Cc1c(C)c2ccc(OCCCCCNc3c(Nc4ccccc4)c(=O)c3=O)cc2oc1=O [Compound 16j, 3-{[5′-((3″,4″-Dimethyl-2″-oxo-2″H-chromen-7″-yl)oxy)pentyl]amino}-4-phenylaminocyclobut-3-ene-1,2-dione]
– | – | – | – | – | – | – | – | > 250 °C | – | > 10 µM | 0.0454 µM | 0.0865 µM | > 10 µM | COc1ccc(Nc2c(NCCCCCOc3ccc4c(C)c(C)c(=O)oc4c3)c(=O)c2=O)cc1 [Compound 16k, 3-{[5′-(3″,4″-Dimethyl-2″-oxo-2″H-chromen-7″-yl)oxypentyl]amino}-4-(4‴-methoxyphenylamino)cyclobut-3-ene-1,2-dione]
– | – | – | – | – | – | – | – | – | – | > 10 µM | 0.0696 µM | 0.132 µM | > 10 µM | Cc1c(C)c2ccc(OCCCCCNc3c(Nc4ccc(Br)cc4)c(=O)c3=O)cc2oc1=O [Compound 16n, 3-[(4′-Bromophenyl)amino]-4-{[5″-(3‴,4‴-dimethyl-2‴-oxo-2‴H-chromen-7″-yl)oxypentyl]amino}cyclobut-3-ene-1,2-dione]
